Test results as given in ChEMBL document CHEMBL1201862, “PubChem BioAssay data set” (2004).
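Compound exposure: 48 hours, 5 concentrations, 96-well plates. Abbreviation: GI50, concentration required for 50% inhibition of growth.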 Active and inactive are the calls of the source. No stated cut-off is given here; in the data, active = GI50 up to about 1.1 µM and inactive = higher.

What was measured:
Assay in all cases: growth of human tumour cells (NCI), 48 h
UACC-62 = system: UACC-62
MOLT-4 = system: MOLT-4
EKVX = system: EKVX
LOX IMVI = system: LOX IMVI
UO-31 = system: UO-31
HCT-15 = system: HCT-15
SK-OV-3 = system: SK-OV-3
HCC 2998 = system: HCC 2998
KM12 = system: KM12
MDA-MB-231 = system: MDA-MB-231
U-251 = system: U-251
SR = system: SR
786-0 = system: 786-0
SNB-75 = system: SNB-75
SK-MEL-28 = system: SK-MEL-28
MDA-MB-435 = system: MDA-MB-435
SF-539 = system: SF-539
SK-MEL-5 = system: SK-MEL-5
Hs-578T = system: Hs-578T
HL-60 = system: HL-60

| Compound | GI50 (UACC-62) | GI50 (MOLT-4) | GI50 (EKVX) | GI50 (LOX IMVI) | GI50 (UO-31) | GI50 (HCT-15) | GI50 (SK-OV-3) | GI50 (HCC 2998) | GI50 (KM12) | GI50 (MDA-MB-231) | GI50 (U-251) | GI50 (SR) | GI50 (786-0) | GI50 (SNB-75) | GI50 (SK-MEL-28) | GI50 (MDA-MB-435) | GI50 (SF-539) | GI50 (SK-MEL-5) | GI50 (Hs-578T) | GI50 (HL-60) |
| --- | --- | --- | --- | --- | --- | --- | --- | --- | --- | --- | --- | --- | --- | --- | --- | --- | --- | --- | --- | --- |
| Nc1ccn([C@H]2CO[C@@H](CO)[C@@H]2O)c(=O)n1 | > 100 µM (inactive) | > 100 µM (inactive) | > 100 µM (inactive) | > 100 µM (inactive) | > 100 µM (inactive) | > 100 µM | > 100 µM (inactive) | > 100 µM (inactive) | > 100 µM (inactive) | > 100 µM (inactive) | > 100 µM (inactive) | > 100 µM (inactive) | > 100 µM (inactive) | > 100 µM (inactive) | > 100 µM (inactive) | > 100 µM (inactive) | > 100 µM (inactive) | > 100 µM (inactive) | – | – |
| COC1C(N(C)C)=C(c2ccccc2)C(=O)N2CCc3ccccc3C12 (centres undefined) | > 100 µM (inactive) | 79.1 µM (inactive) | > 100 µM (inactive) | > 100 µM (inactive) | > 100 µM (inactive) | > 100 µM | > 100 µM (inactive) | – | > 100 µM (inactive) | > 100 µM (inactive) | > 100 µM (inactive) | – | > 100 µM (inactive) | > 100 µM (inactive) | > 100 µM (inactive) | > 100 µM (inactive) | > 100 µM (inactive) | > 100 µM (inactive) | > 100 µM (inactive) | > 100 µM (inactive) |
| CC1=C2C(=O)NN=C2CCN1c1ccc(Br)cc1 | > 100 µM (inactive) | 9.62 µM (inactive) | > 100 µM (inactive) | 62.8 µM (inactive) | 54.3 µM (inactive) | 93.5 µM | > 100 µM (inactive) | – | > 100 µM (inactive) | > 100 µM (inactive) | > 100 µM (inactive) | – | > 100 µM (inactive) | > 100 µM (inactive) | > 100 µM (inactive) | > 100 µM (inactive) | > 100 µM (inactive) | > 100 µM (inactive) | > 100 µM (inactive) | 41.3 µM (inactive) |
| O=C(O)c1ccccc1/C=C1\Cc2ccccc2C1=O | > 100 µM (inactive) | > 100 µM (inactive) | > 100 µM (inactive) | 91 µM (inactive) | > 100 µM (inactive) | > 100 µM | – | > 100 µM (inactive) | > 100 µM (inactive) | – | > 100 µM (inactive) | > 100 µM (inactive) | > 100 µM (inactive) | > 100 µM (inactive) | > 100 µM (inactive) | > 100 µM (inactive) | > 100 µM (inactive) | 47.2 µM (inactive) | > 100 µM (inactive) | > 100 µM (inactive) |
| Cc1ccc(Nc2nc(C)c(C(=O)CC(=O)C(=O)Nc3c(C)cccc3C(C)(C)C)s2)cc1 | > 100 µM (inactive) | > 100 µM (inactive) | > 100 µM (inactive) | > 100 µM (inactive) | > 100 µM (inactive) | > 100 µM | > 100 µM (inactive) | > 100 µM (inactive) | > 100 µM (inactive) | 42.9 µM (inactive) | 71.8 µM (inactive) | – | 75.9 µM (inactive) | – | – | > 100 µM (inactive) | > 100 µM (inactive) | > 100 µM (inactive) | 56 µM (inactive) | > 100 µM (inactive) |
| CC(O[Si](c1ccccc1)(c1ccccc1)C(C)(C)C)[C@H](NC(=O)OC(C)(C)C)C(=O)O[Si](c1ccccc1)(c1ccccc1)C(C)(C)C (some centres undefined) | – | 10.6 µM (inactive) | 11.9 µM (inactive) | – | 13.2 µM (inactive) | 5.24 µM | 16.3 µM (inactive) | 15.9 µM (inactive) | 9.91 µM (inactive) | – | 14.4 µM (inactive) | 12.3 µM (inactive) | 13.2 µM (inactive) | 15.4 µM (inactive) | 14.3 µM (inactive) | – | – | 15.7 µM (inactive) | 19.2 µM (inactive) | 14.4 µM (inactive) |
